In patent US20260015357A1, “MODULATORS OF NLRP3 INFLAMMASOME AND RELATED PRODUCTS AND METHODS” (Neumora Therapeutics, Inc., priority 2022, published 2026):

Key:
[1] = system: IL-6; experiment: IL-6 in supernatants of LPS-primed, nigericin-treated THP1 macrophages, Hu IL-6 AlphaLISA; assay type: cell-based; details: Homo sapiens, THP-1, PMA-differentiated, 1 hr compound, Nigericin 6.7 uM 3 hrs, IL-6 in supernatant
Method: (§1) NLRP3 Inflammasome Activation and Cell Viability Assessment in THP1 Macrophages
(§2) THP1—Human acute monocytic leukemia cells were cultured (ATCC, cat #TIB-202) in Gibco RPMI-1640 medium (ThermoFisher cat #72400054) supplemented with 10% Heat Inactivated FBS at density between 3-8×10^5 viable cells/mi. The cells were then subcultured when the cell concentration reached 8×10^5 cells/mL (every 2-3 days).
(§3) The parameter wells were filled with 50 ul PBS and incubated at 37° C., 5% CO2 for 48 hrs.
(§4) After 48 hrs incubation, the PMA containing media was removed, and changed for 40 ul/well of fresh DMEM, 10% FBS, 1× GlutaMax and incubated at 37° C., 5% CO2 for 24 hrs.
(§5) The following day the cells were primed with LPS (E. coli) (Sigma, cat #L3129) […] in DMEM, 10% FBS, 1× GlutaMax for 3 hrs at 37° C., 5% CO2.
(§6) Following the LPS priming step, the cells were treated with compounds at 10 uM top final concentration, 1:4 dilution, 8 times: (10 uM, 2.5 uM, 0.625 uM, 0.156 uM, 0.039 uM, 0.0097 uM, 0.0024 uM, 0.0006 uM). DMSO was used as a vehicle control, and MCC950 (InvivoGen, cat #inh-mcc) was used at 1 uM as a positive control, and incubated for 1 hrs at 37° C., 5% CO2.
(§7) Following the 1 hr compound incubation, the NLRP3 inflammasome activation step was conducted by treating cells with Nigericin (InvivoGen, cat #tlrl-nig) at 6.7 uM final concentration for 3 hrs at 37° C., 5% CO2.
(§8) Thereafter, 30 ul samples of cells' supernatants were collected for cytokine analysis which was conducted on Hu IL-1β AlphaLISA (Perkin Elmer, cat #AL220C) and Hu IL-6 AlphaLISA (Perkin Elmer, cat #AL220C). The cells' viability was assessed by performing CellTiter-Glo Luminescent Assay (Promega, cat #G7572) according to the manufacturer's protocol.

[2] = molecular target: T1, NLRP3 inflammasome (Homo sapiens, UniProt Q96P20); experiment: NLRP3 inflammasome activation in LPS-primed, nigericin-activated THP1 macrophages, IL-1β AlphaLISA; assay type: cell-based; details: PMA-differentiated, 1 hr compound, Nigericin 6.7 uM 3 hrs, IL-1β in supernatant
T1 construct: host or cells: THP1 human acute monocytic leukemia cells, PMA-differentiated, LPS-primed
T1 sequence (Q96P20 whole entry): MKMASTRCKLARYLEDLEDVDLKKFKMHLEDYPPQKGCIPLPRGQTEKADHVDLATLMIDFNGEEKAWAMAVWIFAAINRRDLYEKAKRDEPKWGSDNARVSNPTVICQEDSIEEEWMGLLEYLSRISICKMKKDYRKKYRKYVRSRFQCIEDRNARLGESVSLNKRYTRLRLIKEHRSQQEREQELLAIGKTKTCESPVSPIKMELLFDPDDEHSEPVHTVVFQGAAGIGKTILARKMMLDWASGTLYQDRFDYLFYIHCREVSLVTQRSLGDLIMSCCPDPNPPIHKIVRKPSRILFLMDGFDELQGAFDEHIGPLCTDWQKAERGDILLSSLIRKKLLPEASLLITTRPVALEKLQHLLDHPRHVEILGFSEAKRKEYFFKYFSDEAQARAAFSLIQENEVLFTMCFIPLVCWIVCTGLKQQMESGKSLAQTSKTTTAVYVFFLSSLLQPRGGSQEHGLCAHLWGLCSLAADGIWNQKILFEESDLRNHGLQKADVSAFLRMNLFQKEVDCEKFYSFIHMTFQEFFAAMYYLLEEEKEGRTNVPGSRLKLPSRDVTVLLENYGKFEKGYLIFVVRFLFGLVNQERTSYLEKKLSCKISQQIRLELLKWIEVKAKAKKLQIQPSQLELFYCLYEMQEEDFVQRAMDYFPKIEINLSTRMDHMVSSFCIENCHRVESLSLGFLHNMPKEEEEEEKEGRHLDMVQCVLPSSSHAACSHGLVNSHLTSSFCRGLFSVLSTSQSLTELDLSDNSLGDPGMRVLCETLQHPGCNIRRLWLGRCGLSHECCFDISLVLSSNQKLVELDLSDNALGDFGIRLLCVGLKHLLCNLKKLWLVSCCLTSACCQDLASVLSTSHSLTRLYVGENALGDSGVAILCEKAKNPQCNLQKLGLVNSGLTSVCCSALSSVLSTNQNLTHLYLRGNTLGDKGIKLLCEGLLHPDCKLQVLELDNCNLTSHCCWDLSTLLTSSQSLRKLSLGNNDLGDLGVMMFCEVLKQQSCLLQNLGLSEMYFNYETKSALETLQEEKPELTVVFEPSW
Method: as §1, §2, §3, §4, §5, §6, §7, §8

| IC50 [1] [nM] | IC50 [2] [nM] | Compound |
| --- | --- | --- |
| ≥ 10000 | < 10 | Cc1cc2c(-c3ccc(C(F)(F)F)cc3)nnc(N[C@@H]3CCCN(C)C3)c2[nH]1 [Compound 21] |
| ≥ 10000 | ≥ 10000 | CN1CCC[C@@H](Nc2nnc(-c3ccccc3C(F)F)c3[nH]ccc23)C1 [Compound 13] |
| ≥ 10000 | 1000 to 10000 | CN1CCC[C@@H](N(C)c2nnc(-c3ccc(C(F)(F)F)cc3)c3[nH]ccc23)C1 [Compound 72] |
| ≥ 10000 | 100 to 500 | CN1CCC[C@@H](Nc2nnc(-c3ccc(C(F)(F)F)cn3)c3ccn(C)c23)C1 [Compound 129] |
| 5000 to 10000 | < 10 | Cc1cc(C(F)(F)F)ccc1-c1nnc(N[C@@H]2CCCN(C)C2)c2[nH]ccc12 [Compound 6] |
| 1000 to 5000 | < 10 | CN1CCC[C@@H](Nc2nnc(-c3ccc(C(F)(F)F)cc3)c3cc[nH]c23)C1 (single isomer, unassigned) [Compound 1] |
| ≥ 10000 | ≥ 10000 | C[N+]1(C)CCC[C@@H](Nc2nnc(-c3ccc(C(F)(F)F)cc3)c3nc[nH]c23)C1 [Compound 92] |
| 1000 to 5000 | 100 to 500 | CN1CCC[C@@H](Nc2nnc(-c3ccc(C(F)(F)F)cc3)c3occc23)C1 [Compound 54] |
| 1000 to 5000 | 100 to 500 | CN1CCC[C@@H](N(C)c2nnc(-c3ccc(F)cc3O)c3ccn(C)c23)C1 [Compound 81] |
| ≥ 10000 | ≥ 10000 | CN1CCC[C@@H](Nc2nnc(-c3ccc(C(F)(F)F)cc3)c3c2CCO3)C1 [Compound 59] |
| 1000 to 5000 | 1000 to 10000 | CN1CCC[C@@H](N(C)c2nnc(-c3ccccc3O)c3ccn(C)c23)C1 [Compound 18] |
| ≥ 10000 | 10 to 100 | CN1CCC[C@@H](Nc2nnc(-c3ccc(C(F)(F)F)cc3)c3ccsc23)C1 [Compound 61] |
| ≥ 10000 | 1000 to 10000 | CN1CCC[C@@H](Nc2nnc(-c3ccc(Cl)cc3)c3[nH]ccc23)C1 [Compound 11] |
|  | < 10 | CN1CCC[C@@H](Nc2nnc(-c3ccc(C(F)(F)F)cc3C(F)F)c3ccn(C)c23)C1 [Compound 122] |
| ≥ 10000 | ≥ 10000 | CN1CCC[C@@H](N(C)c2nnc(-c3ccc(C(F)(F)F)cc3)c3ncn(C)c23)C1 [Compound 105] |
| ≥ 10000 | < 10 | CN1CCC[C@@H](Nc2nnc(-c3ccc(C(F)(F)F)cc3)c3c2cnn3C)C1 [Compound 32] |
| ≥ 10000 | ≥ 10000 | CN1CCC[C@@H](N(C)c2nnc(-c3ccc(C#N)cc3)c3ccn(C)c23)C1 [Compound 84] |

| IC50 [1] [nM] | IC50 [2] [nM] | Compound |
| --- | --- | --- |
| 1000 to 5000 | 10 to 100 | CN1CCC[C@@H](Nc2nnc(-c3ccc(F)cc3)c3cc[nH]c23)C1 [Compound 5] |
| ≥ 10000 | 500 to 1000 | CN1CCC[C@@H](Nc2nnc(-c3ccc(C(F)(F)F)cc3)c3nc[nH]c23)C1 [Compound 20] |
| ≥ 10000 | ≥ 10000 | Cc1cc(-c2nnc(N[C@@H]3CCCN(C)C3)c3cc[nH]c23)ccc1C(F)(F)F [Compound 66] |
| ≥ 10000 | 10 to 100 | Cn1ncc2c(-c3ccc(C(F)(F)F)cc3)nnc(N[C@@H]3CCCN(CC4CC4)C3)c21 [Compound 108] |
| 5000 to 10000 | < 10 | CN1CCC[C@@H](Nc2nnc(-c3ccc(C(F)(F)F)cc3)c3c2CCC3)C1 [Compound 65] |
| ≥ 10000 | 10 to 100 | CN1CCC[C@@H](Nc2nnc(-c3ccc(C(F)(F)F)cc3)c3ccoc23)C1 [Compound 53] |
| ≥ 10000 | 10 to 100 | Cn1ncc2c(-c3ccc(C(F)(F)F)cc3)nnc(N[C@@H]3CCCN(C4CC4)C3)c21 [Compound 109] |
| ≥ 10000 | 100 to 500 | CN1CCC[C@@H](Nc2nnc(-c3ccc(C(F)(F)F)cc3)c3c2OCC3)C1 [Compound 58] |
| ≥ 10000 | ≥ 10000 | CN1CCC[C@@H](Nc2nnc(-c3ccc(F)cc3)c3[nH]ccc23)C1 [Compound 9] |
| ≤ 1000 | < 10 | CCN1CCC[C@@H](Nc2nnc(-c3ccc(C(F)(F)F)cc3)c3ccn(C)c23)C1 [Compound 76] |
| ≥ 10000 | ≥ 10000 | Cc1c[nH]c2c(-c3ccc(F)cc3)nnc(N[C@@H]3CCCN(C)C3)c12 [Compound 74] |
| ≥ 10000 | 1000 to 10000 | CN1CCC[C@@H](N(C)c2nnc(-c3ccc(C(F)(F)F)cc3)c3ccoc23)C1 [Compound 93] |
| ≥ 10000 | 100 to 500 | CN1CCC[C@@H](N(C)c2nnc(-c3ccc(F)cc3O)c3ccsc23)C1 [Compound 98] |
|  | ≥ 10000 | CN1CCC[C@@H](Nc2nnc(-c3ccccc3)c3[nH]ccc23)C1 [Compound 70] |
|  | 500 to 1000 | CN1CCC[C@@H](Nc2nnc(-c3ccccc3)c3cc[nH]c23)C1 [Compound 15] |
|  | 10 to 100 | CN1CCC[C@@H](Nc2nnc(-c3ccc(C(F)(F)F)cc3)c3c2ccn3C)C1 [Compound 69] |

The next lines start with the molecule.

| Compound | IC50 [1] [nM] | IC50 [2] [nM] |
| --- | --- | --- |
| CN1CCC[C@@H](Nc2nnc(-c3ccc(Cl)cc3)c3ccn(C)c23)C1 [Compound 80] | ≥ 10000 | < 10 |
| CN1CCC[C@@H](Nc2nnc(-c3ccc(C#N)cc3C(F)F)c3ccn(C)c23)C1 [Compound 120] |  | 100 to 500 |
| CN1CCC[C@@H](Nc2nnc(-c3ccc(C(F)(F)F)cn3)c3cnn(C)c23)C1 [Compound 136] | 1000 to 5000 | 100 to 500 |
| COc1cc(C)ccc1-c1nnc(N[C@@H]2CCCN(C)C2)c2c1cnn2C [Compound 167] | ≥ 10000 | 1000 to 10000 |
| Cc1cc(C(F)(F)F)ccc1-c1nnc(N[C@@H]2CCCN(C)C2)c2c1ccn2C [Compound 123] | 1000 to 5000 | < 10 |
| COCCN1CCC[C@@H](Nc2nnc(-c3ccc(C#N)cc3O)c3ccn(C)c23)C1 [Compound 153] | ≥ 10000 | 10 to 100 |
| CN1CCC[C@@H](Nc2nnc(-c3ncc(C#N)cc3Cl)c3cnn(C)c23)C1 [Compound 140] |  | 1000 to 10000 |
| Cn1ccc2c(-c3ccc(C#N)cc3O)nnc(N[C@@H]3CCCN(C4COC4)C3)c21 [Compound 160] | ≥ 10000 | 1000 to 10000 |
| Cn1ccc2c(-c3ccc(C#N)cc3O)nnc(N[C@@H]3CCCN(c4ccccc4)C3)c21 [Compound 161] | ≥ 10000 | ≥ 10000 |
| CN1CCC[C@@H](Nc2nnc(-c3ccc(C#N)cc3Cl)c3ccn(C)c23)C1 [Compound 124] | ≥ 10000 | 100 to 500 |
| CN1CCC[C@@H](Nc2nnc(-c3ccccc3O)c3[nH]ccc23)C1 [Compound 8] | ≥ 10000 | 100 to 500 |
| COCCN1CCC[C@@H](Nc2nnc(-c3ccc(C#N)cc3O)c3cnsc23)C1 [Compound 154] | ≥ 10000 | 10 to 100 |
| Cc1cc(C(F)(F)F)cc(O)c1-c1nnc(N[C@@H]2CCCN(C)C2)c2c1ccn2C [Compound 143] | ≤ 1000 | < 10 |
| CN1CCC[C@@H](Nc2nnc(-c3ccc(C#N)cc3O)c3c(Cl)cn(C)c23)C1 [Compound 157] | ≥ 10000 | 100 to 500 |
| CN1CCC[C@@H](Nc2nnc(-c3ccc(Cl)cc3C(F)F)c3cnn(C)c23)C1 [Compound 118] | ≥ 10000 | 10 to 100 |
| CN1CCC[C@@H](Nc2nnc(-c3ccc(C#N)cc3O)c3c2cnn3C)C1 [Compound 104] | ≥ 10000 | 10 to 100 |
| CN1CCC[C@@H](Nc2nnc(-c3ccc(Cl)cc3C(F)F)c3ccn(C)c23)C1 [Compound 121] | ≥ 10000 | 10 to 100 |
| CN1CCC[C@@H](Nc2nnc(-c3ccc(C#N)cc3O)c3cnsc23)C1 [Compound 144] | ≥ 10000 | < 10 |
| CN1CCC[C@@H](Nc2nnc(-c3ncc(C#N)cc3O)c3cc(Cl)n(C)c23)C1 [Compound 165] | ≥ 10000 | < 10 |
| CCN1CCC[C@@H](Nc2nnc(-c3ccc(C#N)cc3O)c3ccn(C)c23)C1 [Compound 103] | 5000 to 10000 | < 10 |
| CN1CCC[C@@H](Nc2nnc(-c3ncc(C#N)cc3O)c3cnn(C)c23)C1 [Compound 114] |  | 10 to 100 |
| Cn1ccc2c(-c3ccc(C#N)cc3O)nnc(N[C@@H]3CCCN(CC(C)(C)O)C3)c21 [Compound 152] | ≥ 10000 | 10 to 100 |
| CN1CCC[C@@H](Nc2nnc(-c3ncc(C#N)cc3O)c3ccn(C)c23)C1 [Compound 135] |  | ≥ 10000 |
| N#Cc1ccc(-c2nnc(N[C@@H]3CCCN(CCF)C3)c3sncc23)c(O)c1 [Compound 150] |  | 10 to 100 |
| Cc1cc(C#N)ccc1-c1nnc(N[C@@H]2CCCN(C)C2)c2c1ccn2C [Compound 125] |  | 10 to 100 |
| CN1CCC[C@@H](Nc2nnc(-c3ccccc3O)c3cc[nH]c23)C1 [Compound 14] |  | < 10 |
